Patent publication US9603364B2 (Dow AgroSciences LLC, priority 2013, dated 2017)

Experiments:
Test in all cases: General post-emergent herbicidal activity, foliar application
Assay type in all cases: in vivo
[1] = test system: Oryza sativa L. (rice); details: Oryza sativa, 336 h, scored after 14 days, read-out: % Visual Growth Reduction ORYSA; for plant injury at 280 g/ha: 280 g ai/ha; for plant injury at 140 g/ha: 140 g ai/ha
Outline: (§1)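 Injury rated visually 14 days after treatment on a 0 (none) to 100% (complete kill) scale against untreated plants; greenhouse-grown, sub-irrigated to avoid wash-off. Foliar spray in aqueous acetone/DMSO with isopropanol, crop oil concentrate and Triton X-155, at a highest rate and 2-fold serial dilutions down to 1/16×.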

[2] = test system: Zea mays L. (corn); details: 336 h, scored after 14 days, read-out: % Visual Growth Reduction ZEAMX; for plant injury at 280 g/ha: 280 g ai/ha; for plant injury at 140 g/ha: 140 g ai/ha
Outline: as §1

[3] = test system: Helianthus annuus L. (sunflower, common); details: for pest or weed control at 280 g/ha: 280 g ai/ha; for pest or weed control at 140 g/ha: 140 g ai/ha; for GR80 Value HELAN: calculated by probit analysis, dose for 80% visual injury, may be extrapolated
Outline: (§2)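 Compounds in acetone/DMSO (97:3) were diluted into aqueous spray containing isopropyl alcohol, Atplus 411F crop oil and Triton X-155, then applied post-emergence to foliage at a top rate plus 1/2× to 1/16× serial dilutions. Injury was scored visually (0–100%) after 14 days in a sub-irrigated greenhouse versus untreated plants. GR20/GR50/GR80 were derived by probit analysis, with some GR80 values extrapolated from curve slope.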

[4] = test system: Echinochloa crus-galli (L.) Beauv. (barnyardgrass); details: for pest or weed control at 280 g/ha: 280 g ai/ha; for pest or weed control at 140 g/ha: 140 g ai/ha; for GR80 Value ECHCG: calculated by probit analysis, dose for 80% visual injury, may be extrapolated
Outline: as §2

[5] = test system: Amaranthus retroflexus L. (pigweed, redroot); details: for pest or weed control at 280 g/ha: 280 g ai/ha; for pest or weed control at 140 g/ha: 140 g ai/ha; for GR80 Value AMARE: calculated by probit analysis, dose for 80% visual injury, may be extrapolated
Outline: as §2

[6] = test system: Euphorbia heterophylla L. (poinsettia, wild); details: for pest or weed control at 280 g/ha: 280 g ai/ha; for pest or weed control at 140 g/ha: 140 g ai/ha; for GR80 Value EPHHL: calculated by probit analysis, dose for 80% visual injury, may be extrapolated
Outline: as §2

[7] = test system: Viola tricolor L. (pansy); details: for pest or weed control at 280 g/ha: 280 g ai/ha; for pest or weed control at 140 g/ha: 140 g ai/ha; for GR80 Value VIOTR: calculated by probit analysis, dose for 80% visual injury, may be extrapolated
Outline: as §2

[8] = test system: Chenopodium album L. (lambsquarters, common); details: for pest or weed control at 280 g/ha: 280 g ai/ha; for pest or weed control at 140 g/ha: 140 g ai/ha; for GR80 Value CHEAL: calculated by probit analysis, dose for 80% visual injury, may be extrapolated
Outline: as §2

[9] = Helianthus annuus, 336 h, foliar post-emergent, scored after 14 days, read-out: % Visual Growth Reduction HELAN
[10] = Echinochloa crus-galli, 336 h, foliar post-emergent, scored after 14 days, read-out: % Visual Growth Reduction ECHCG
[11] = Amaranthus retroflexus, 336 h, foliar post-emergent, scored after 14 days, read-out: % Visual Growth Reduction AMARE
[12] = Euphorbia heterophylla, 336 h, foliar post-emergent, scored after 14 days, read-out: % Visual Growth Reduction EPHHL
[13] = Viola tricolor, 336 h, foliar post-emergent, scored after 14 days, read-out: % Visual Growth Reduction VIOTR
[14] = Chenopodium album, 336 h, foliar post-emergent, scored after 14 days, read-out: % Visual Growth Reduction CHEAL

Row | SMILES | plant injury at 280 g/ha [1] [%] | plant injury at 280 g/ha [2] [%] | pest or weed control at 280 g/ha [3, 9] [%] | pest or weed control at 280 g/ha [4, 10] [%] | pest or weed control at 280 g/ha [5, 11] [%] | pest or weed control at 280 g/ha [6, 12] [%] | pest or weed control at 280 g/ha [7, 13] [%] | pest or weed control at 280 g/ha [8, 14] [%] | plant injury at 140 g/ha [1] [%] | plant injury at 140 g/ha [2] [%] | pest or weed control at 140 g/ha [3, 9] [%] | pest or weed control at 140 g/ha [4, 10] [%] | pest or weed control at 140 g/ha [5, 11] [%] | pest or weed control at 140 g/ha [6, 12] [%] | pest or weed control at 140 g/ha [7, 13] [%] | pest or weed control at 140 g/ha [8, 14] [%] | GR80 Value HELAN [3] [g ai/ha] | GR80 Value ECHCG [4] [g ai/ha] | GR80 Value AMARE [5] [g ai/ha] | GR80 Value EPHHL [6] [g ai/ha] | other results
1 | COC(=O)c1nc(CCl)c(F)c(N)c1Cl [Compound F21, Methyl 4-amino-3-chloro-6-(chloromethyl)-5-fluoropicolinate] | 0 | 0 | 0 | 0 | 0 | 0 | 0 | 0 | – | – | – | – | – | – | – | – | – | – | – | – | –
2 | C=C(F)c1nc(C(=O)OC)c(Cl)c(N)c1F [Compound F22, methyl 4-amino-3-chloro-5-fluoro-6-(1-fluorovinyl)picolinate] | 0 | 0 | 80 | 0 | 90 | 60 | 10 | 90 | 0 | 0 | 80 | 0 | 90 | 50 | 10 | 90 | – | – | – | – | –
3 | CC(F)c1cc(N)c(Cl)c(C(=O)O)n1 (stereo not drawn) [Compound F24, 4-Amino-3-chloro-6-(1-fluoroethyl)picolinic acid] | 10 | 10 | 80 | 90 | 100 | 95 | 100 | 100 | 0 | 0 | 75 | 80 | 100 | 90 | 100 | 100 | 199 | 165 | 12.3 | 122 | plant injury at 35 g/ha ([1]; 35 g ai/ha): 0%; plant injury at 70 g/ha ([1]; 70 g ai/ha): 0%; plant injury at 35 g/ha ([2]; 35 g ai/ha): 0%; plant injury at 70 g/ha ([2]; 70 g ai/ha): 0%; pest or weed control at 35 g/ha ([3]; Helianthus annuus, 336 h, 35 g ai/ha, foliar post-emergent, scored after 14 days, read-out: % Visual Growth Reduction HELAN): 50%; pest or weed control at 70 g/ha ([3]; Helianthus annuus, 336 h, 70 g ai/ha, foliar post-emergent, scored after 14 days, read-out: % Visual Growth Reduction HELAN): 65%; pest or weed control at 35 g/ha ([4]; Echinochloa crus-galli, 336 h, 35 g ai/ha, foliar post-emergent, scored after 14 days, read-out: % Visual Growth Reduction ECHCG): 0%; pest or weed control at 70 g/ha ([4]; Echinochloa crus-galli, 336 h, 70 g ai/ha, foliar post-emergent, scored after 14 days, read-out: % Visual Growth Reduction ECHCG): 55%; pest or weed control at 35 g/ha ([5]; Amaranthus retroflexus, 336 h, 35 g ai/ha, foliar post-emergent, scored after 14 days, read-out: % Visual Growth Reduction AMARE): 90%; pest or weed control at 70 g/ha ([5]; Amaranthus retroflexus, 336 h, 70 g ai/ha, foliar post-emergent, scored after 14 days, read-out: % Visual Growth Reduction AMARE): 100%; pest or weed control at 35 g/ha ([6]; Euphorbia heterophylla, 336 h, 35 g ai/ha, foliar post-emergent, scored after 14 days, read-out: % Visual Growth Reduction EPHHL): 5%; pest or weed control at 70 g/ha ([6]; Euphorbia heterophylla, 336 h, 70 g ai/ha, foliar post-emergent, scored after 14 days, read-out: % Visual Growth Reduction EPHHL): 80%; pest or weed control at 35 g/ha ([7]; Viola tricolor, 336 h, 35 g ai/ha, foliar post-emergent, scored after 14 days, read-out: % Visual Growth Reduction VIOTR): 85%; pest or weed control at 70 g/ha ([7]; Viola tricolor, 336 h, 70 g ai/ha, foliar post-emergent, scored after 14 days, read-out: % Visual Growth Reduction VIOTR): 100%; GR80 Value VIOTR [7]: 36.7 g ai/ha; pest or weed control at 35 g/ha ([8]; Chenopodium album, 336 h, 35 g ai/ha, foliar post-emergent, scored after 14 days, read-out: % Visual Growth Reduction CHEAL): 100%; pest or weed control at 70 g/ha ([8]; Chenopodium album, 336 h, 70 g ai/ha, foliar post-emergent, scored after 14 days, read-out: % Visual Growth Reduction CHEAL): 100%; GR80 Value CHEAL [8]: <17.5 g ai/ha
4 | Nc1c(Cl)c(CF)nc(C(=O)O)c1Cl [Compound F25, 4-Amino-3,5-dichloro-6-(fluoromethyl)picolinic acid] | 0 | 0 | 90 | 50 | 85 | 100 | 0 | 80 | 0 | 0 | 80 | 0 | 80 | 100 | 0 | 80 | 146 | 373 | 180 | <17.5 | GR80 Value VIOTR [7]: >280 g ai/ha; GR80 Value CHEAL [8]: 176 g ai/ha
